Measurements taken from patent US5276120A, “Process for forming omega-deuxy-azasugars” (The Scripps Research Institute, priority 1992, dated 1994).
Where two headings read alike, the source gives them in different places. Blank lines part the entries; values can stand above or below the compound they belong to.

How the values were obtained:
α-Glucosidase (BY) = target: T1, α-Glucosidase (BY) (Saccharomyces cerevisiae, UniProt P07265); experiment: Glycosidase inhibition, α-glucosidase from brewers yeast; format: biochemical
T1 construct: purchased Sigma
T1 sequence (P07265 whole entry): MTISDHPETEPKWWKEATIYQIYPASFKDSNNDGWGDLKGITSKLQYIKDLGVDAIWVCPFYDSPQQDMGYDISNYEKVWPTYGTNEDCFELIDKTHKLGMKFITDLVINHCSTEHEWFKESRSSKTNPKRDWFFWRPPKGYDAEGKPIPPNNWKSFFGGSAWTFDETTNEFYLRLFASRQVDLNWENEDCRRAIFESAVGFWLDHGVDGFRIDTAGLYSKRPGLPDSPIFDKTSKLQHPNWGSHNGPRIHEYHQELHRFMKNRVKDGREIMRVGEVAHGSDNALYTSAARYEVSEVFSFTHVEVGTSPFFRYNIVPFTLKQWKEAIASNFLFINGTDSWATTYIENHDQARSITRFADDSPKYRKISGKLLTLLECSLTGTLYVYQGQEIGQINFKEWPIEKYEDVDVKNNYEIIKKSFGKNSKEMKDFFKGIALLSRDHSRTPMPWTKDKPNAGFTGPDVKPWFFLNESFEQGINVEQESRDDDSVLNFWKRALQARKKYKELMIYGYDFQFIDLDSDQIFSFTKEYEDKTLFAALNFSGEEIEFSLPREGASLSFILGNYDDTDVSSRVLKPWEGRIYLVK
From the text: (§1) Materials: All of the buffers, enzymes, and substrates were purchased from Sigma and used as received. These included piperazine-N,N'-bis(2-ethanesulfonic acid) (PIPES), sodium acetate (NaOAc), ethylenediaminetetraacetic acid (EDTA), β-D-glucosidase (from sweet almond), p-nitrophenyl β-D-glucoside, α-D-glucosidase, p-nitrophenyl α-D-glucoside, β-N-acetyl-D-glucosaminedase, p-nitrophenyl β-N-acetyl-D-glucosaminide, α-D-mannosidase, and p-nitrophenyl α-D-mannoside.
b) PIPES-NaOAc buffer (0.01M PIPES, 0.2M NaOAc and 0.01 mM EDTA, pH 6.5). This buffer was prepared according to the literature procedure [Dale et al., Biochemistry 1985, 24, 3530].
d) α-D-Glucosidase: 1.5 mg of solid protein (70 units/mg) were dissolved in 1 mL PIPES-NaOAc buffer solution and used for assays without further dilution.
g) Substrate solutions: all substrates were dissolved in the corresponding buffer solution for enzymatic assay.
(§2) For each inhibitor, five inhibitor concentrations, ranging from zero to three times Ki, were generally used to determine the Ki value. […] The amount of enzyme added in each assay was adjusted so that less than 10 percent of the substrate, with its lowest substrate concentration, would be consumed within 45 seconds. Since all of the substrates have p-nitrophenol as leaving group, the assays were monitored at 400 nanometers (nm), where the molecular extinction coefficient, ε, was calibrated to be 3204.5M^-1 cm^-1 at pH 6.5. The following illustrates the detailed procedure.
To a 1 mL disposable cuvette were added […] (μL) of the NaOAc-PIPES buffer solution, 20 μL of the inhibitor solution and 20 μL of the p-nitrophenyl β-D-glucoside solution (100 Mm in PIPES-NaoAc buffer, PH 6.5). The solution was well mixed and 20 μL of the β-D-glucosidase solution were injected into the cuvette to start the reaction. The reaction was monitored at 400 nm on a Beckman DU-70 photospectrometer for 45 seconds and the initial hydrolysis rate was calculated. The same procedure was repeated with five other substrate concentrations. After all the initial rates were accumulated, the corresponding Lineweaver-Burk plot at that inhibitor concentration was constructed.
PIPES-NaOAc buffer was used for all the enzymes except β-N-acetyl-D-glucosaminedase, for which PIPES buffer was used.

[1] = system: β-D-Galactosidase (jack bean); experiment: Glycosidase inhibition, β-D-galactosidase (jack bean); format: biochemical; settings: 10 mM inhibitor in the assay
From the text: as §2

[2] = system: AIDS virus gp160 envelope protein precursor; settings: Walker et al., Proc. Natl. Acad. Sci. 1987, 84, 8120; cited from earlier work
α-L-Fucosidase = α-L-Fucosidase inhibition, hydrolysis of p-nitrophenyl-α-L-fucoside; format: biochemical; settings: for Type of fucosidase inhibition: versus fuc-pNP
Method: α-L-Fucosidase activity was measured by incubating the enzyme (0.005 Units) with fuc-pNP ([…]) in 0.4 ml of 50 mM acetate buffer, pH 5.5 for 20 minutes at 25° C. in the absence and presence of the azasugars of the present invention. The reaction was stopped by the addition of 0.8 ml of 2 Mm glycine buffer, pH 10.5. The amount of formed p-nitrophenol was determined by optical density spectroscopy at a wavelength of 400 nm.

[3] = target: T2, α-Glucosidase Type I (calf liver) (Bos taurus, UniProt A0A3Q1M9D9); experiment: Glycosidase inhibition, α-glucosidase Type I (calf liver); format: biochemical; settings: footnote not given
T2 construct: host or cells: calf liver
T2 sequence (A0A3Q1M9D9 1-839): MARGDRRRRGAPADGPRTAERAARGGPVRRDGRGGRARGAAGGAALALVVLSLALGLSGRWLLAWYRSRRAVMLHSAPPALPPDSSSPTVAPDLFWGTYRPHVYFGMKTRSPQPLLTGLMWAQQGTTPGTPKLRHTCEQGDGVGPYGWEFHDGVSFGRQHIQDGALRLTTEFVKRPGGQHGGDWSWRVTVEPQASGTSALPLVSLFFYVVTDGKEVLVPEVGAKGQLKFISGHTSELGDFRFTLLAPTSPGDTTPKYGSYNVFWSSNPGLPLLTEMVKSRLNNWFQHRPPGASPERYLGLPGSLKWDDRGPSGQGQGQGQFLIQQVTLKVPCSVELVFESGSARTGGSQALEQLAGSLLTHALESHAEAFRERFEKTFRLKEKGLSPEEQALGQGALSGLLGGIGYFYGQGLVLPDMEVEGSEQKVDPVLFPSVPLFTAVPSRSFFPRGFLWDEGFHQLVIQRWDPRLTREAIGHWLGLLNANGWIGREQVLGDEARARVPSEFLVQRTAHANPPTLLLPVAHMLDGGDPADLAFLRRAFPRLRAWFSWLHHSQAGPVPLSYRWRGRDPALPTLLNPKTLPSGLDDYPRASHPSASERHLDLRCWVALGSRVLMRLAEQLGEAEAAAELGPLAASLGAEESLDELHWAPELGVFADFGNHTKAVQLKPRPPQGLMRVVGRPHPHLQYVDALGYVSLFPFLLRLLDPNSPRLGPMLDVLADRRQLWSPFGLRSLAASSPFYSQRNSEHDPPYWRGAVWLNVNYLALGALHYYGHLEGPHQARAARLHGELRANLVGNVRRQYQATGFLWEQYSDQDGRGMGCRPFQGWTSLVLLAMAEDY

β-Glucosidase (SA) = experiment: Glycosidase inhibition, β-glucosidase from sweet almond; format: biochemical; settings: kinetic analysis
From the text: as §1
b) PIPES-NaOAc buffer (0.01M PIPES, 0.2M NaOAc and 0.01 mM EDTA, pH 6.5). This buffer was prepared according to the literature procedure [Dale et al., Biochemistry 1985, 24, 3530]. […]
For each inhibitor, five inhibitor concentrations, ranging from zero to three times Ki, were generally used to determine the Ki value. […] Since all of the substrates have p-nitrophenol as leaving group, the assays were monitored at 400 nanometers (nm), where the molecular extinction coefficient, ε, was calibrated to be 3204.5M^-1 cm^-1 at pH 6.5. […]
To a 1 mL disposable cuvette were added 950 microliters (μL) of the NaOAc-PIPES buffer solution, 20 μL of the inhibitor solution and 20 μL of the p-nitrophenyl β-D-glucoside solution (100 Mm in PIPES-NaoAc buffer, PH 6.5). […] The reaction was monitored at 400 nm on a Beckman DU-70 photospectrometer for 45 seconds and the initial hydrolysis rate was calculated. […]

[4] = fuc-pNP substrate, 50 mM acetate buffer, pH 5.5, 25° C., read-out: Ki (mM), α-L-Fucosidase Inhibition (Table 2)
[5] = pH 6.5, p-nitrophenyl α-D-glucoside, Lineweaver-Burk, read-out: Ki (M), α-Glucosidase (BY)

SMILES: OCC1NCC(O)C(O)C1O (stereo not shown) [Compound 23, 1-deoxynojirimycin]
Ki (α-Glucosidase (BY)): 8.67e-06 M | Inhibition of β-D-Galactosidase (jack bean) [1]: No inhibition

SMILES: OC1CN2CCC(O)C2C(O)C1O (stereo not shown) [castanospermine, 1,6,7,8-tetrahydroxyoctahydroindolizine]
Effect on processing of AIDS virus gp160 envelope protein precursor [2]: inhibit the processing of the AIDS virus gp160 envelope protein precursor

Ki (α-L-Fucosidase; competitive inhibitor versus fuc-pNP, read-out: Ki versus fuc-pNP): 0.3 ± 0.01 mM | Ki (α-L-Fucosidase; [4]): 0.3 ± 0.1 mM | Type of fucosidase inhibition (α-L-Fucosidase): competitive inhibitor
SMILES: C[C@@H]1OC(O)[C@@H](O)[C@H](O)[C@@H]1O (stereo partly drawn) [L-Fucose]

Ki (α-Glucosidase (BY); [5]): 0.00178 M
SMILES: C[C@@H]1[C@@H](O)[C@H](O)[C@@H](O)CN1C [Compound 17, N-Methyl-1,5,6-trideoxy-1,5-imino-D-glucitol]

SMILES: Oc1ccccc1 [phenol]
Ki (α-L-Fucosidase; noncompetitive inhibitor, analog of p-nitrophenol, read-out: Kis): 0.18 ± 0.02 mM | Type of fucosidase inhibition (α-L-Fucosidase): noncompetitive inhibitor

SMILES: CN1CC(O)C(O)C(O)C1CO (stereo not shown) [Compound 19, N-methyl 1-deoxynojirimycin]
Ki [3]: 0.07 µM | Ki (α-Glucosidase (BY)): 0.000369 M

SMILES: OCC1NCC(O)C(O)C1O [Compound 124, D-1-deoxytalonojirimycin]
Ki (α-L-Fucosidase; [4]): 0.05 ± 0.006 mM

SMILES: C[C@H]1NC[C@H](O)[C@@H](O)[C@@H]1O [Compound 3c, 1,5,6-Trideoxy-1,5-imino-D-glucitol]
Ki (α-Glucosidase (BY)): 0.00156 M

Ki (α-L-Fucosidase; [4]): 0.03 ± 0.01 mM
SMILES: OC[C@H]1NC[C@@H](O)[C@@H](O)[C@@H]1O [D-1-deoxymannojirimycin, 1,5-dideoxy-1,5-imino-D-mannitol]

Potency relative to Compound 17, β-glucosidase from sweet almond (β-Glucosidase (SA)): less potent inhibitor than Compound 17 | Ki (α-Glucosidase (BY); [5]): 0.00695 M
SMILES: CC1C(O)C(O)C(O)C[N+]1(C)[O-] [Compound 18, N-Methyl-1,5,6-trideoxy-1,5-imino-D-glucitol oxide]
